Reference: patent publication US12534465B2, “5H-pyrrolo[3,2-d]pyrimidine-2,4-diamino compounds and antibody conjugates thereof” (SUTRO BIOPHARMA, INC., priority 2019, dated 2026)

Tests used:
MC38-hFolRα tumors = assay: Anti-tumor activity in mice bearing established MC38-hFolRα tumors; assay type: in vivo, mouse; conditions: Day 0 and 4; for tumor growth inhibition (TGI): compared to vehicle control on day 10, p<0.0001
From the text: This example evaluates the response of MC38-hFolRα tumors to treatment with Compound 2, a TLR 7 agonist.
Female C57BL/6 mice at 9-10 weeks of age were anesthetized with isoflurane and implanted subcutaneously into the right hind flank with 1×10^6 MC38-hFolRα (murine colon adenocarcinoma cells engineered to express hFolRα). Randomization and start of treatment was initiated when the average tumor size was approximately 150 mm^3 (designated as Day 0 post-treatment). Animals received intratumoral (IT) injections of Compound 2 on Day 0 and Day 4 (q4d×2). Compound 2 was dissolved in DMSO and dosing solutions were formulated in PBS. Body weight and tumor size were monitored 3×/week. The primary study endpoint was reached when the mean tumor size of the vehicle control group was >1,200 mm^3.

human TLR7 = target: T1, human TLR7 (Homo sapiens, UniProt Q9NYK1); assay: HEK293 SEAP reporter assay, TLR panel (Example 10); assay type: cell-based; conditions: 16 hrs
T1 construct: host or cells: HEK293
T1 sequence (Q9NYK1 27-1049): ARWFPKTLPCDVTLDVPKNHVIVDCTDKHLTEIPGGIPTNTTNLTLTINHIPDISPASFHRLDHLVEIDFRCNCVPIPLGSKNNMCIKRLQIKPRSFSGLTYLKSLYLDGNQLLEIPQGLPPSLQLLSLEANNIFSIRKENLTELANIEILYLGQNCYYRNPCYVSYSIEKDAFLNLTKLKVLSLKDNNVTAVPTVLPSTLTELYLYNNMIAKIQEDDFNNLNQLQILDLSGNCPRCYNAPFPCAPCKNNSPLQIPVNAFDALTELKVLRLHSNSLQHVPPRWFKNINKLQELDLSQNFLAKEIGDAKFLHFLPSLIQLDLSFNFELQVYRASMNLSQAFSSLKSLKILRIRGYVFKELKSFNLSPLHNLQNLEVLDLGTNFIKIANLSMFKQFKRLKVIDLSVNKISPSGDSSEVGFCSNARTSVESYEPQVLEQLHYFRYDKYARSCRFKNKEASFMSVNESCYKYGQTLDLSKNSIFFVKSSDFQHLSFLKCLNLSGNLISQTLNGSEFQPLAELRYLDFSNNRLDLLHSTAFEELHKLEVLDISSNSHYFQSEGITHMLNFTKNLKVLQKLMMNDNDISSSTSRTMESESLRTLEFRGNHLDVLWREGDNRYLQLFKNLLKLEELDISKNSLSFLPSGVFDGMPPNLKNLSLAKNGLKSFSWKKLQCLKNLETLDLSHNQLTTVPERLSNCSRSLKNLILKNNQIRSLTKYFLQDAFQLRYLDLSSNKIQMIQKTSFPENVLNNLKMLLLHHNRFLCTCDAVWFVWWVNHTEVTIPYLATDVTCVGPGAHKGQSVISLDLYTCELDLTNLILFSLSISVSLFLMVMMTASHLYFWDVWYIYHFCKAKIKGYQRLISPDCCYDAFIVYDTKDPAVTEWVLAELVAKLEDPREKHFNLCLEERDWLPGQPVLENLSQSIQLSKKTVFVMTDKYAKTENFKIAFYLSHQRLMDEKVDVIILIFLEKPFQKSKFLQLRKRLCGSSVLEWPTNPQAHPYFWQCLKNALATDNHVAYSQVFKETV
From the text: (§1) In this example, the activity of the compound 10 to stimulate different human and mouse TLR pathways was investigated on HEK293 cells transfected with inducible SEAP (secreted embryonic alkaline phosphatase) reporter genes and also expressing different human TLRs (TLR2, TLR3, TLR4, TLR5, TLR7, TLR8, TLR9) or mouse TLRs (TLR2, TLR3, TLR4, TLR5, TLR7, TLR8, TLR13).
(§2) HEK293 reporter cell lines were purchased from Invivogen and cell lines were maintained in manufacture recommended culture medium with required supplemental antibiotics. On the day of assay, the cells were harvested with Accutase and counted by the Vi-CELL Cell Viability Analyzers. Cells were resuspended in HEK blue detection medium and a total of 10000 cells were seeded in each well of a 384-well flat bottom plate. Serial dilutions of compound 10 and compound 1 was added into treatment wells. Assay plates were cultured at 37° C. in a CO2 incubator for 16 hrs. HEK-Blue™ Detection medium changes to a purple/blue color in the presence of secreted SEAP, which can be detected by spectrophotometry at 620-655 nm. Data was fitted with non-linear regression analysis, using a log(inhibitor) vs. response-variable slope, 3-parameter fit with GraphPad Prism.

mouse TLR7 = target: T2, mouse TLR7 (Mus musculus, UniProt P58681); assay: HEK293 SEAP reporter assay, TLR panel (Example 10); assay type: cell-based; conditions: 16 hrs
T2 construct: host or cells: HEK293
T2 sequence (P58681 27-1050): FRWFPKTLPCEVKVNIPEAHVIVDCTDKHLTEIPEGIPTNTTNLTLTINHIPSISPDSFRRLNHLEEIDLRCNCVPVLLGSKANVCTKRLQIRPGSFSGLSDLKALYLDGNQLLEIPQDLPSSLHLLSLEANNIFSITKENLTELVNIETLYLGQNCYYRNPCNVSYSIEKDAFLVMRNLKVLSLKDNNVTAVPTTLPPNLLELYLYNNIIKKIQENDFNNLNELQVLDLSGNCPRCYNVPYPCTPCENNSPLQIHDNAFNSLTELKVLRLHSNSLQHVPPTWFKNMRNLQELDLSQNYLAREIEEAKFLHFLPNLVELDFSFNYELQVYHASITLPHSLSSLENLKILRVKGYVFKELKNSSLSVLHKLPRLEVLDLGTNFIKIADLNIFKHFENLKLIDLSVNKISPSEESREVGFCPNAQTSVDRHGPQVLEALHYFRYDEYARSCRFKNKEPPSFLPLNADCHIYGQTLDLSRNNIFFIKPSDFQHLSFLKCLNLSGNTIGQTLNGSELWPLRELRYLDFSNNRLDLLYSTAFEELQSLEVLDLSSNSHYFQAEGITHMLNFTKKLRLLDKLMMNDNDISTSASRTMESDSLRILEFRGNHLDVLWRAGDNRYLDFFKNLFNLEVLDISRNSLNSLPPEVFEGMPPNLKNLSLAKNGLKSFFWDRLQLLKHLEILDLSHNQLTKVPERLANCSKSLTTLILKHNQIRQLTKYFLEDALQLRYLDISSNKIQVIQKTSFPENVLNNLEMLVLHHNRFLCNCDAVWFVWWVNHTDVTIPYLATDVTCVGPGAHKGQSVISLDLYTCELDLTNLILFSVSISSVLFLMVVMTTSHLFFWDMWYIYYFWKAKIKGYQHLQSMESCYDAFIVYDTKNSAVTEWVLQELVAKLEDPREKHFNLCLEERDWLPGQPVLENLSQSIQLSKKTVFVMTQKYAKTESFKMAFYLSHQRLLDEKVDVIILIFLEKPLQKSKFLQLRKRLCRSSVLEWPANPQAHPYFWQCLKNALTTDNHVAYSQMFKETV
From the text: as §1, §2

| EC50 (human TLR7) | EC50 (mouse TLR7) | SMILES | tumor growth inhibition (TGI) (MC38-hFolRα tumors; 0.1 mg/kg intratumoral) | tumor growth inhibition (TGI) (MC38-hFolRα tumors; 0.5 mg/kg intratumoral) | tumor growth inhibition (TGI) (MC38-hFolRα tumors; 2 mg/kg intratumoral) | MC38-hFolRα tumor growth delay (MC38-hFolRα tumors; 0.1-2 mg/kg intratumoral) |
| --- | --- | --- | --- | --- | --- | --- |
|  |  | CCCCCNc1nc(N)nc2ccn(Cc3ccc(CN4CC(NC)C4)cc3OC)c12 [Compound 2, 5-(2-methoxy-4-((3-(methylamino)azetidin-1-yl)methyl)benzyl)-N4-pentyl-5H-pyrrolo[3,2-d]pyrimidine-2,4-diamine] | 55% | 61% | 80% | significantly delayed |
| 2.17 nM | 2.6 nM | CCCCCNc1nc(N)nc2ccn(Cc3ccc(CN4CCNCC4)cc3OC)c12 [Compound 1, 5-(2-methoxy-4-(piperazin-1-ylmethyl)benzyl)-N4-pentyl-5H-pyrrolo[3,2-d]pyrimidine-2,4-diamine, reference compound] |  |  |  |  |
| 11 nM | 22.9 nM | CCCCCNc1nc(N)nc2ccn(Cc3ccc(CN4CC5(CNCCO5)C4)cc3OC)c12 [Compound 10, 5-[[2-methoxy-4-(5-oxa-2,8-diazaspiro[3.5]nonan-2-ylmethyl)phenyl]methyl]-N4-pentyl-pyrrolo[3,2-d]pyrimidine-2,4-diamine] |  |  |  |  |
